Test results published in the NIST ThermoML archive (doi:10.1021/acs.jced.7b00121).
Numbers after ± are expanded uncertainties.

Settings: 101.33 kPa, Liquid; for viscosity: Falling or rolling sphere viscometry; for mass density: Vibrating tube method

Row | SMILES | viscosity (288.15 K) [mPa·s] | mass density (288.15 K) [kg/m3] | viscosity (293.15 K) [mPa·s] | mass density (293.15 K) [kg/m3] | viscosity (298.15 K) [mPa·s] | mass density (298.15 K) [kg/m3] | viscosity (303.15 K) [mPa·s] | mass density (303.15 K) [kg/m3] | viscosity (308.15 K) [mPa·s] | mass density (308.15 K) [kg/m3] | viscosity (313.15 K) [mPa·s] | mass density (313.15 K) [kg/m3] | viscosity (318.15 K) [mPa·s] | mass density (318.15 K) [kg/m3] | viscosity (323.15 K) [mPa·s] | mass density (323.15 K) [kg/m3] | viscosity (328.15 K) [mPa·s] | mass density (328.15 K) [kg/m3] | viscosity (333.15 K) [mPa·s] | mass density (333.15 K) [kg/m3] | also measured
1 | CCCCCCC [heptane] | 0.432 ± 0.043 | 688.13 ± 1.4 | 0.412 ± 0.041 | 683.93 ± 1.4 | 0.393 ± 0.039 | 679.71 ± 1.4 | 0.377 ± 0.038 | 675.47 ± 1.4 | 0.362 ± 0.036 | 671.2 ± 1.4 | 0.348 ± 0.035 | 666.89 ± 1.4 | 0.335 ± 0.034 | 662.55 ± 1.4 | 0.324 ± 0.033 | 658.19 ± 1.3 | 0.312 ± 0.031 | 653.79 ± 1.3 | 0.302 ± 0.03 | 649.33 ± 1.3 | viscosity (338.15 K): 0.293 ± 0.029 mPa·s; mass density (338.15 K): 644.84 ± 1.3 kg/m3; viscosity (343.15 K): 0.284 ± 0.029 mPa·s; mass density (343.15 K): 640.29 ± 1.3 kg/m3
2 | CCCCCCCCCC [decane] | 0.987 ± 0.099 | 733.57 ± 1.5 | 0.915 ± 0.092 | 729.81 ± 1.5 | 0.852 ± 0.085 | 726.05 ± 1.5 | 0.797 ± 0.08 | 722.28 ± 1.4 | 0.747 ± 0.075 | 718.49 ± 1.4 | 0.703 ± 0.07 | 714.69 ± 1.4 | 0.663 ± 0.066 | 710.88 ± 1.4 | 0.627 ± 0.063 | 707.06 ± 1.4 | 0.593 ± 0.059 | 703.21 ± 1.4 | 0.563 ± 0.056 | 699.36 ± 1.4 | viscosity (338.15 K): 0.536 ± 0.054 mPa·s; mass density (338.15 K): 695.48 ± 1.4 kg/m3; viscosity (343.15 K): 0.512 ± 0.051 mPa·s; mass density (343.15 K): 691.59 ± 1.4 kg/m3
3 | CCCCCCCCC [nonane] | 0.763 ± 0.077 | 721.64 ± 1.4 | 0.713 ± 0.072 | 717.78 ± 1.4 | 0.669 ± 0.067 | 713.91 ± 1.4 | 0.63 ± 0.063 | 710.03 ± 1.4 | 0.594 ± 0.06 | 706.12 ± 1.4 | 0.564 ± 0.057 | 702.2 ± 1.4 | 0.535 ± 0.054 | 698.26 ± 1.4 | 0.509 ± 0.051 | 694.3 ± 1.4 | 0.485 ± 0.049 | 690.33 ± 1.4 | 0.462 ± 0.046 | 686.34 ± 1.4 | viscosity (338.15 K): 0.443 ± 0.044 mPa·s; mass density (338.15 K): 682.31 ± 1.4 kg/m3; viscosity (343.15 K): 0.425 ± 0.043 mPa·s; mass density (343.15 K): 678.26 ± 1.4 kg/m3
4 | CCCCCCCC [octane] | 0.585 ± 0.059 | 706.54 ± 1.4 | 0.552 ± 0.055 | 702.53 ± 1.4 | 0.523 ± 0.052 | 698.51 ± 1.4 | 0.496 ± 0.05 | 694.48 ± 1.4 | 0.473 ± 0.047 | 690.42 ± 1.4 | 0.45 ± 0.045 | 686.34 ± 1.4 | 0.431 ± 0.043 | 682.24 ± 1.4 | 0.412 ± 0.041 | 678.11 ± 1.4 | 0.395 ± 0.04 | 673.95 ± 1.4 | 0.379 ± 0.038 | 669.77 ± 1.4 | viscosity (338.15 K): 0.365 ± 0.037 mPa·s; mass density (338.15 K): 665.55 ± 1.4 kg/m3; viscosity (343.15 K): 0.352 ± 0.035 mPa·s; mass density (343.15 K): 661.28 ± 1.3 kg/m3
